Reference: PMC6200399 (ACS chemical biology, 2018)
Where “and” joins values, the source holds several entries; their conditions need not be identical. Equal entries are not always repeated.

Experiments:
[1] = molecular target: T1, RhlR (Pseudomonas aeruginosa, UniProt P54292); test: E. coli RhlR reporter competitive antagonism assay versus 10 μM BHL; type: cell-based, P. aeruginosa; conditions: compounds screened at 1 mM in the presence of 10 μM BHL, relative to activation of 10 μM BHL alone
[2] = molecular target: LasR (Pseudomonas aeruginosa, UniProt P25084); test: E. coli LasR reporter antagonism assay; type: cell-based, P. aeruginosa; conditions: compounds at 1 mM, versus 2 nM OdDHL (Table S3)
[3] = molecular target: T1, RhlR; test: E. coli RhlR reporter agonism assay; type: cell-based, P. aeruginosa; conditions: for % activation: compounds screened at 10 μM, RhlR activity relative to BHL at 1 mM, E. coli reporter; for EC50: read-out: EC50 (RhlR agonism, E. coli), E. coli RhlR reporter, dose-response; for fold more potent than BHL (RhlR agonism potency): EC50 relative to BHL
[4] = molecular target: T1, RhlR; test: P. aeruginosa PAO-JP2; type: cell-based; conditions: read-out: EC50 (RhlR agonism, P. aeruginosa); P. aeruginosa PAO-JP2 prhlI-LVAgfp; in the presence of 100 nM OdDHL

Chain of LasR (P25084 whole entry): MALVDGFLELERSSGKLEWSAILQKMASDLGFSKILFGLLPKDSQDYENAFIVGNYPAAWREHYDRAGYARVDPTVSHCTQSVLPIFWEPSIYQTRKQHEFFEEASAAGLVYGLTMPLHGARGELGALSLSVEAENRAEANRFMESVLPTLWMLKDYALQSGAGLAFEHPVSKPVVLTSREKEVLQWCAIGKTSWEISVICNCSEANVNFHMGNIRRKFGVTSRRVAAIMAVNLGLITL
T1 sequence (P54292 whole entry): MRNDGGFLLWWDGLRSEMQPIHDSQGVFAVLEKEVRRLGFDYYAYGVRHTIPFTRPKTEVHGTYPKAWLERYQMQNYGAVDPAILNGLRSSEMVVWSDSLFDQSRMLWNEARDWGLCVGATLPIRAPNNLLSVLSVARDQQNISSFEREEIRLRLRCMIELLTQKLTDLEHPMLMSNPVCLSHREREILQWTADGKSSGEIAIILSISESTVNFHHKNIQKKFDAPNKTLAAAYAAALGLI

1-methyl-cyclopropanoyl HL [Compound 20]
% inhibition [1]: 24%

CCCC(=O)N[C@H]1CCOC1=O [Compound 1, N-butanoyl-L-homoserine lactone, reference compound]
LasR antagonism (% inhibition) [2]: antagonize | % activation [3]: 51% | EC50 ([3]; listed as 1 (BHL)): 8.95 µM | EC50 ([3]; listed as BHL): ~10 µM and ~9 µM

CC(C)CC(=O)N[C@H]1CCOC1=O [Compound 7, isovaleryl HL]
LasR antagonism (% inhibition) [2]: > 70% | EC50 [4]: 1.42 µM | fold more potent than BHL (RhlR agonism potency) [3]: ~10 fold | % activation [3]: 86% | EC50 [3]: 1.02 µM

CCC(C)C(=O)NC1CCOC1=O (stereo not shown) [Compound 8, 2-methylbutanoyl HL]
% activation [3]: 55% | EC50 [3]: 7.77 µM

O=C(NC1CCOC1=O)C1CCC1 (stereo not shown) [Compound 17, cyclobutanoyl HL]
LasR antagonism (% inhibition) [2]: > 70% | EC50 [4]: 1.41 µM | fold more potent than BHL (RhlR agonism potency) [3]: ~10 fold | % activation [3]: 79% | EC50 [3]: 1.78 µM

CCCC(=O)N[C@@H]1CCOC1=O [Compound 25, D-BHL]
% inhibition [1]: 11% | RhlR agonism at 1 mM ([3]; compound at 1 mM, E. coli reporter (Table S2)): marginal activity | % activation [3]: 2%

CCCC(=O)NC1CCSC1=O (stereo not shown) [Compound 26]
EC50 [4]: 3.82 µM | % activation [3]: 71% | EC50 [3]: 4.87 µM

CCCC(=O)N[C@H]1CCNC1=O [Compound 27]
% activation [3]: 1%

CCCC(=O)NC1CCCC1=O (stereo not shown) [Compound 28]
EC50 [4]: 14.3 µM | fold less active than BHL (RhlR agonism potency) ([3]; E. coli reporter EC50 relative to BHL, p < 0.05): under 3 fold | % activation [3]: 35% | EC50 [3]: 27.4 µM

CCCC(=O)NC1CCOC1 (stereo not shown) [Compound 30]
% activation [3]: 0%

Butenyl HL [Compound 14]
EC50 [3]: 6.93 µM

cyclopentyl HL [Compound 3, reference compound]
EC50 [4]: 1.22 µM | % activation [3]: 76% | EC50 [3]: 1.58 µM

cyclopropyl HL [Compound 18]
% activation [3]: 32%

pentenyl HL [Compound 2, reference compound]
% activation [3]: 54% | EC50 [3]: 7.93 µM

propyl HL [Compound 4]
% activation [3]: 25%
